Legend:
[1] = test system: human isolated bronchial preparations; experiment: Inhibition of EFS-induced contraction of human isolated bronchi; settings: after termination of drug exposure
Method: Regions of macroscopically normal lungs were taken from uninvolved areas resected from 24 subjects (11 male and 13 female, 60.1±1.6 years old) undergoing lobectomy surgery for lung cancer, but without a history of chronic airway disease.
Airways were immediately placed into oxygenated Krebs-Henseleit buffer solution (KH) (mM: NaCl 119.0, KCl 5.4, CaCl2 2.5, KH2PO41.2, MgSO4 1.2, NaHCO3 25.0, glucose 11.7; pH 7.4) containing the cyclooxygenase (COX) inhibitor indomethacin (5.0 μM), and transported at 4° C. from the “Regina Elena National Cancer Institute” or the “Sant'Andrea Hospital” to the Respiratory Research Laboratory in the Surgery and Medicine Faculty of “Tor Vergata University”, Rome, Italy. None of the subjects were chronically treated with theophylline, β2-agonists or glucocorticosteroids. Serum IgE levels determined on the day of surgery were in the normal range. […]
Human bronchi were placed in organ baths containing KH buffer solution (37° C.) medicated with indomethacin (5.0 μM), bubbled with 95% O2/5% CO2 and suspended under passive tension (0.5-1.0 g). […] Changes in isometric tension were measured with a transducer (Fort 10 WPI, Basile, Instruments, Italy) and the tissue responsiveness was assessed by acetylcholine (100 μM); when the response reached a plateau, rings were washed three times and allowed to equilibrate for 45 min. […]

[2] = test system: human isolated bronchial tissues pre-contracted with acetylcholine; experiment: Relaxation of human isolated bronchi pre-contracted with acetylcholine (EC70), drugs alone and in combination, synergy analysis; settings: n=5; for slope (nH): 4 parameter logistic fit
Method: Bronchial rings were mounted on hooks in the organ baths where one hook was attached with threaded to a stationary rod and the other hook tied with thread to an isometric force displacement transducer. […] Tallarida, 2001; Goldoni and Johansson, 2007; Boik et al., 2008; Lee, 2010). […] Goodman et al., 2008). E/Emax was expressed as percentage of Emax elicited by the contractile agents; […] The analysis of the potential synergism between RPL554 plus a β2-adrenergic receptor agonist was measured by applying the Berenbaum method, the Bliss Independence (BI) criterion and the Loewe Additivity (LA) model through curved isoboles (Berenbaum, 1977; Greco et al., 1995; Grabovsky and Tallarida, 2004; Tallarida, 2006; Goldoni and Johansson, 2007; Tallarida and Raffa, 2010). […] Lee, 2010). The BI theory for two agents is expressed by the following equation: E(x,y)=Ex+Ey-(Ex*Ey), where E is the fractional effect, and x and y are the concentrations of two compounds in a combination experiment. If the combination effect is higher than the expected value from the above equation, the interaction is considered synergistic, while if this effect is lower, the interaction is antagonistic. […] In this study, the BI equation was characterized by X=RPL554 and Y=β2-adrenergic receptor agonist. […] Using the concept of dose equivalence, the relationship a/A+b/B=1 was reformulated as b+beq (a)=B, where beq is the dose equivalent of a and solving for beq(a) by equating the two individual concentration response curves EA=f(A) and EB=f(B). The additive response (Eab) for each dose combination with respect to B was then calculated by insertion of B into EB=f(B). The difference between the observed relaxation response to the combination doses and the additive response was calculated and analysed using a one sample t-test and for multiple comparisons, the probability was adjusted for multiple comparisons using a Bonferroni correction. For illustrative purposes, the 1:1 dose combinations were analysed for synergy. […] Then, concentration response curves were constructed to test individual compound RPL554, or salbutamol alone; or RPL554 administered in combination with salbutamol in order to produce isobolar graphs (salbutamol:RPL554 and ranging from 10:1 to 1:100) as described elsewhere (Greco et al., 1995; Tallarida, 2001; Goldoni and Johansson, 2007; Boik et al., 2008; Lee, 2010).

[3] = test system: passively sensitized human isolated bronchi; experiment: Contraction induced by histamine in passively sensitized human bronchi; settings: RPL554 100 μM
Method: Human isolated bronchial rings were rotated overnight at room temperature in tubes containing KH buffer solution in the absence (non-sensitized control rings) or the presence of 10% vol^−1 sensitizing serum (sensitized rings) as described elsewhere (Watson et al., 1997; Rabe, 1998). Subjects suffering from atopic asthma (total IgE>250 U^−1 specific against common aeroallergens) during exacerbation provided signed consent for serum donation.
Sera was prepared by centrifugation of whole blood and sera samples were frozen at −80° C. in 200 ml aliquots until required.
The next morning, after removal of adhering alveolar and connective tissues, bronchial rings were transferred into an organ bath containing KH buffer (37° C.) and continuously gassed with a 95% O2/5% CO2. Tissues were pre-incubated for 30 min with RPL554 (1, 10 and 100 μM) and then followed (without washing) by the construction of concentration responses curve to histamine (10 nM-1 mM) in the presence of RPL554.
Appropriate curve-fitting to a sigmoidal model was used to calculate the effect (E), the Emax and the concentration required to cause a 50% maximal effect (EC50). The equation used was log [agonist] vs. response, Variable slope, expressed as Y=Bottom+(Top−Bottom)/{1+10^[(Log EC50−X)*HillSlope]} (Motulsky and Christopoulos, 2004; Goodman et al., 2008). […]

anaesthetized rats = experiment: Cardiovascular interaction (safety) study, blood pressure and heart rate, i.v. bolus; assay type: in vivo, rat
Description: This study was undertaken to determine whether RPL554 has cardiovascular interactions with a β2-adrenergic receptor agonist (salbutamol). A muscarinic receptor antagonist (atropine) was included for completeness. RPL554 is a dual PDE3/PDE4 inhibitor being developed for treatment of chronic obstructive pulmonary disease (COPD) and asthma as an inhaled bronchodilator with possible anti-inflammatory actions. […] The study design was blind and random with drugs given as pairs five minutes apart in an alternating manner, e.g., RPL554 followed by salbutamol and vice versa. […] Instead they were chosen to test for possible interactions under supra therapeutic conditions.
Doses producing a 15-30 mmHg increase in mean blood pressure (MBP) and 30-60 beats per minute increase in heart rate (HR) were chosen from an initial dose-response study for RPL554 and salbutamol. […] Thereafter, the chosen doses were examined in pairs administered 5 minutes part. […] The intention of the study was to use supra normal conditions in order to challenge for possible interactions under supra therapeutic conditions.
The studies were performed on Sprague-Dawley male rats from Charles River weighing 200-250 grms. […] For the purposes of the experiment the animals were anaesthetized with thiobutabarbital at a dose of 100 mg/kg given by the i.p. route. There was no necessity for supplemental anaesthesia and at the end of the experimental period each rat was sacrificed. The study had two parts: (I) an initial dose ranging study and (II) the interaction study. The drugs studied were: RPL554 (R), salbutamol (S), atropine (A) all dissolved in saline.
An initial dose-ranging study was performed as follows: cumulative dose-response curves for intravenous bolus doses of the three drugs were performed to determine appropriate doses of each of the three drugs for the full study. Doses of RPL554 or salbutamol producing a 15-30 mmHg increase in mean blood pressure (MBP) and 30-60 beats per minute increase in heart rate (HR) were chosen from this initial dose-response study. […] This dose-ranging study involved four rats in which cumulative doses of each of the 3 drugs were given on a dose-doubling basis. Doses of each of the drugs were given as i.v. bolus injections every 5 minutes with 1 hour between different drugs. The order of injections were: for animal 1—S, R, A; animal 2—R, A, S; animal 3—A, S, R and animal 4—R, A, S. As indicated above the doses and routes of injection where chosen as supernormal and above doses producing effects when given by inhalation.
In this study all drugs were given as a single dose by i.v. bolus injection, via a jugular vein cannula, and at a volume of 1 mL/kg. The study design was blind and random with three lines each containing four animals for a total of 12 animals.
Pairs of drugs were given to individual animals on a randomized blind basis using a line by line design where each line contained four rats with injections as follows: R1S2, S1R2, R1A2 and A1R2 (in random order where 1 indicates the first drug given and 2 indicates the second drug given 5 minutes after the first drug). A total of 3 lines were studied thus a total of 12 rats were used and none of the animals had to be replaced.

Guinea pigs = experiment: Reduction in mean arterial blood pressure after iv. administration; assay type: in vivo, guinea pig; settings: 20 μg/kg RPL554 iv., control (alone)
Method: (§1) Guinea pigs were anaesthetized and ventilated. Airway obstruction was induced by the intravenous administration of bombesin (2 μg/ml; 5 ml/hr). Bronchodilation was induced by the iv. administration of RPL554 alone at various doses, or in combination with sub maximal dose of salbutamol (20 μg/kg). Doses were selected following studies generating a dose-response curve for both salbutamol to select a dose resulting in approximately 20% reduction in airways obstruction. Total lung resistance (RL) and mean arterial blood pressure were measured. Data are expressed as % reduction in airways obstruction or blood pressure.

guinea pig airways = experiment: Reversal of bombesin-induced airways obstruction (total lung resistance); assay type: in vivo; settings: salbutamol 20 μg/kg alone
Method: as §1

| SMILES | Duration of inhibition of EFS contractile response after exposure to drug [1] | slope (nH) ([2]; mean±SD) | Effect on contraction induced by histamine [3] | Time to peak response, blood pressure (anaesthetized rats) | Time to peak response, heart rate (anaesthetized rats) [min] | reduction in mean arterial blood pressure (Guinea pigs) [%] | EC50 ([2]; Homo sapiens, geomean (95% CI), acetylcholine EC70, read-out: potency (EC50), relaxation) [nM] | Emax ([2]; Homo sapiens, mean±SD, acetylcholine EC70, percentage of papaverine (500 μM) induced relaxation) [%] | reduction in airways obstruction (guinea pig airways) [%] |
| --- | --- | --- | --- | --- | --- | --- | --- | --- | --- |
| COc1cc2c(cc1OC)-c1cc(=Nc3c(C)cc(C)cc3C)n(CCNC(N)=O)c(=O)n1CC2 [RPL554, 9,10-Dimethoxy-2-(2,4,6-trimethylphenylimino)-3-(N-carbamoyl-2-aminoethyl)-3,4,6,7-tetrahydro-2H-pyrimido[6,1-a]isoquinolin-4-one] | at least 5 h | 2.271±0.713 | completely abolished the contraction induced by histamine | 60 to 80 s | 2 to 4.5 | 37.3±6.7 | – | – | – |
| CN1[C@@H]2CC[C@H]1C[C@@H](OC(=O)C(CO)c1ccccc1)C2 (some centres unmarked) [atropine] | – | – | – | 240 s | 4 | – | – | – | – |
| CC(C)(C)NCC(O)c1ccc(O)c(CO)c1 (centres unmarked) [salbutamol] | – | 1.572±0.482 | – | approximately 20 seconds | ~1 | – | 283 | 78 ± 11 | 34.2±11.1 |

From US9717732B2, “Drug combination” (VERONA PHARMA PLC, priority 2013, dated 2017)
